Reference: US20250361230A1, “LATS Inhibitors and Uses Thereof” (The USA, as Represented by the Secretary, Dept. of Heath …, priority 2022, published 2025)

Columns and labels:
Assay type in all cases: biochemical
LATS1 = target: T1, LATS1 (Homo sapiens, UniProt O95835); test: RBC HotSpot kinase assay (33P-ATP, P81 filter-binding), LATS1; settings: Table 28, biochemical kinase assay; read-out: LATS1 IC50
T1 sequence (O95835 1-1130): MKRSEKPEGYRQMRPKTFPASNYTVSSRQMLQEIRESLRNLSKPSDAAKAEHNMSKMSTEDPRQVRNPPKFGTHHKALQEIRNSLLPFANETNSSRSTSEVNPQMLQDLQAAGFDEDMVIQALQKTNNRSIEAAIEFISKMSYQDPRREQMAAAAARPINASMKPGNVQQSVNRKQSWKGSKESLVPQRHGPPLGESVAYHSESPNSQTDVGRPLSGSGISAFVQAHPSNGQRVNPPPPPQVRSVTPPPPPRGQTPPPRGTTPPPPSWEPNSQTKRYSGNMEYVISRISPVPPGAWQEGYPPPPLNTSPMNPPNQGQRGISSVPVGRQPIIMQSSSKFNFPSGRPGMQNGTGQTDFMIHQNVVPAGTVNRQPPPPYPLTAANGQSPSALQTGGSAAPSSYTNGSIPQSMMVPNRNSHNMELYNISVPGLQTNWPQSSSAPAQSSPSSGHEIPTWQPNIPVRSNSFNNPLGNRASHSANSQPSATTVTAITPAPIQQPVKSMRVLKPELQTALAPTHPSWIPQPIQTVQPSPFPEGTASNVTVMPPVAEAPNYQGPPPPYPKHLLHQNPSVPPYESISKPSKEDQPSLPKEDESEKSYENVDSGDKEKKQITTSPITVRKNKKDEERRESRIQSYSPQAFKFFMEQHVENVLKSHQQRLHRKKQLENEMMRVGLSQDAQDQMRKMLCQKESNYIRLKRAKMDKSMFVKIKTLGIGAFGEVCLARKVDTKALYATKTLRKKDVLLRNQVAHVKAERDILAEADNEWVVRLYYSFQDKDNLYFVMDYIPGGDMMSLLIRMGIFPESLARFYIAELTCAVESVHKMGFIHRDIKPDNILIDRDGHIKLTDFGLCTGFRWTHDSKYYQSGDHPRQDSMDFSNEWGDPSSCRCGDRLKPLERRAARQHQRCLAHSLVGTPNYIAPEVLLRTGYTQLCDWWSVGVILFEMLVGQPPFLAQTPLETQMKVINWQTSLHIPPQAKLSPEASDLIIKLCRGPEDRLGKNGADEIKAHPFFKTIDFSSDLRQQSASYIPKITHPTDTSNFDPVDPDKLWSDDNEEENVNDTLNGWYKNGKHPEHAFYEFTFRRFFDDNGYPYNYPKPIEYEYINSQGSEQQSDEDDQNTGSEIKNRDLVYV
How it was run: (§1)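 Hepes pH 7.5/MgCl2/EGTA/Brij35/BSA/Na3VO4/DTT buffer, cofactors per kinase; cpd acoustically dispensed, 20 min preinc RT; start w/ 33P-ATP, 2 h RT; P81 filter readout; 10-pt singlet IC50.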

LATS2 = target: T2, LATS2 (Homo sapiens, UniProt Q9NRM7); test: RBC HotSpot kinase assay (33P-ATP, P81 filter-binding), LATS2; settings: Table 28, biochemical kinase assay; read-out: LATS2 IC50
T2 sequence (Q9NRM7 1-1088): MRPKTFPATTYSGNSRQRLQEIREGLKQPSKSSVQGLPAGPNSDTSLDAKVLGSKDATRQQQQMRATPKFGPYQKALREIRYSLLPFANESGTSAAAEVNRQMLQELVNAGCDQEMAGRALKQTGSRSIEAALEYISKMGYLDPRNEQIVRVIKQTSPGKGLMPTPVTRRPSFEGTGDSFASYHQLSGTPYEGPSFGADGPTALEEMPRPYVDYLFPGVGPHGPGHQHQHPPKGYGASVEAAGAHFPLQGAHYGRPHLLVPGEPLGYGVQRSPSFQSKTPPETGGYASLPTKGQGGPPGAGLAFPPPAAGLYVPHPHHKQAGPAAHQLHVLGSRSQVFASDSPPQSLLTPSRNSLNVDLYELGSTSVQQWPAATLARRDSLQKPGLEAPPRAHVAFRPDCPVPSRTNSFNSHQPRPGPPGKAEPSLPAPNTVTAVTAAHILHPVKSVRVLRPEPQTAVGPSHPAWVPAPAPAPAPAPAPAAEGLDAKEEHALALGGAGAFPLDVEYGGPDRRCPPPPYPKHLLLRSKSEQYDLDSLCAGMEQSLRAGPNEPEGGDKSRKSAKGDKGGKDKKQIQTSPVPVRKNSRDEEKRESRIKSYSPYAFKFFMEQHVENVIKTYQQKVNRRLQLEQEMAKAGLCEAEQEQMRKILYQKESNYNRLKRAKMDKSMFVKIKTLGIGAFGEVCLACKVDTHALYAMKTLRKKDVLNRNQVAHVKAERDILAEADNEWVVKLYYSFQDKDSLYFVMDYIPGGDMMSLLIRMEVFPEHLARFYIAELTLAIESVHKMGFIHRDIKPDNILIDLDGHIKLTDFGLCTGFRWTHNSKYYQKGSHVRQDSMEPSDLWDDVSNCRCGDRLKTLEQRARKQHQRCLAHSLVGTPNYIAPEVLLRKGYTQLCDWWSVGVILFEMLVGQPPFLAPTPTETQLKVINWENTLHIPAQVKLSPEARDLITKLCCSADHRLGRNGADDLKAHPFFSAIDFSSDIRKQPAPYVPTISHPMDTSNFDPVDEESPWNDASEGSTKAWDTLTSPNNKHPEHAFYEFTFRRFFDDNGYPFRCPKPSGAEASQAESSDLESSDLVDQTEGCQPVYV
How it was run: as §1

AKT = AKT (Homo sapiens, UniProt P31749); test: RBC HotSpot kinase assay (33P-ATP, P81 filter-binding), AKT; settings: Table 28, biochemical kinase assay; read-out: AKT IC50
How it was run: as §1

AKT, sequence (P31749 whole entry): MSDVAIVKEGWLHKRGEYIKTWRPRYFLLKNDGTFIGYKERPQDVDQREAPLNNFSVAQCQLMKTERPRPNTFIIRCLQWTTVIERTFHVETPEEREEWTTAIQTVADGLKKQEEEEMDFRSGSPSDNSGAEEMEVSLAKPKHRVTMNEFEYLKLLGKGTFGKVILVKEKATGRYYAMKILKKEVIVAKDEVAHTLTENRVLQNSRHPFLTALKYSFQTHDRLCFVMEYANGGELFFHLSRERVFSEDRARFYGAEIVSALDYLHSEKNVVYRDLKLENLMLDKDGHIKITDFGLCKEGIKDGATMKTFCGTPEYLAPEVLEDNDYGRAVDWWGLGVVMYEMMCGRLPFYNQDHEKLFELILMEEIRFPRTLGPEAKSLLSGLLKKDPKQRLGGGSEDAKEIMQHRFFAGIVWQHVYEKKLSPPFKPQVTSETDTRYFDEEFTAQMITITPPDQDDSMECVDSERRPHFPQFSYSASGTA

SMILES | IC50 (LATS1) [µM] | IC50 (LATS2) [µM] | IC50 (AKT) [µM]
c1cncc(-c2cc(-c3ccnc4[nH]ccc34)ccc2C2CCNCC2)c1 [Compound 154, 4-(4-(piperidin-4-yl)-3-(pyridin-3-yl)phenyl)-1H-pyrrolo[2,3-b]pyridine] | 0.087 | 0.048 | 1.32
NCc1ccc(-c2cc(-c3ccnc4[nH]ccc34)ccc2C2CCNCC2)cc1 [Compound 155, (2′-(piperidin-4-yl)-5′-(1H-pyrrolo[2,3-b]pyridin-4-yl)-[1,1′-biphenyl]-4-yl)methanamine] | 0.0043 | 0.001 | 0.068
CC(C)(C)Nc1cc(-c2ccnc3[nH]cc(F)c23)ccc1C1CCNCC1 [Compound 156, N-(tert-butyl)-5-(3-fluoro-1H-pyrrolo[2,3-b]pyridin-4-yl)-2-(piperidin-4-yl)aniline] | 0.139 | 0.121 | 1.12
CC(C)(C)Nc1cc(-c2ccnc3[nH]ccc23)ccc1C1CCNCC1 [Compound 157, N-(tert-butyl)-2-(piperidin-4-yl)-5-(1H-pyrrolo[2,3-b]pyridin-4-yl)aniline] | 0.216 | 0.109 | 1.65
COCCN1CCC(c2ccc(-c3ccnc4[nH]cc(F)c34)cc2Cl)CC1 [Compound 158, 4-(3-chloro-4-(1-(2-methoxyethyl)piperidin-4-yl)phenyl)-3-fluoro-1H-pyrrolo[2,3-b]pyridine] | 0.029 | 0.056 | 1.15
CN(C)CCS(=O)(=O)N1CCC(c2ccc(-c3ccnc4[nH]cc(F)c34)cc2Cl)CC1 [Compound 159, 2-((4-(2-chloro-4-(3-fluoro-1H-pyrrolo[2,3-b]pyridin-4-yl)phenyl)piperidin-1-yl)sulfonyl)-N,N-dimethylethan-1-amine] | 0.174 | 0.139 | 8.52
O=C(C1CC1)N1CCC(c2ccc(-c3ccnc4[nH]cc(F)c34)cc2Cl)CC1 [Compound 160, (4-(2-chloro-4-(3-fluoro-1H-pyrrolo[2,3-b]pyridin-4-yl)phenyl)piperidin-1-yl)(cyclopropyl)methanone] | 0.451 | 0.442 | > 10
Clc1cc(-c2ccnc3[nH]ccc23)ccc1C1CCNCC1 [Compound 161, 4-(3-chloro-4-(piperidin-4-yl)phenyl)-1H-pyrrolo[2,3-b]pyridine] | 0.0089 | 0.021 | 0.753
C[Si](C)(C)CCS(=O)(=O)N1CCC(c2ccc(-c3ccnc4[nH]cc(F)c34)cc2Cl)CC1 [Compound 162, 4-(3-chloro-4-(1-((2-(trimethylsilyl)ethyl)sulfonyl)piperidin-4-yl)phenyl)-3-fluoro-1H-pyrrolo[2,3-b]pyridine] | > 10 | > 10 | > 10
O=S(=O)(CCC1CC1)N1CCC(c2ccc(-c3ccnc4[nH]cc(F)c34)cc2Cl)CC1 [Compound 163, 4-(3-chloro-4-(1-((2-cyclopropylethyl)sulfonyl)piperidin-4-yl)phenyl)-3-fluoro-1H-pyrrolo[2,3-b]pyridine] | > 10 | > 10 | > 10
CCOCCS(=O)(=O)N1CCC(c2ccc(-c3ccnc4[nH]cc(F)c34)cc2Cl)CC1 [Compound 164, 4-(3-chloro-4-(1-((2-ethoxyethyl)sulfonyl)piperidin-4-yl)phenyl)-3-fluoro-1H-pyrrolo[2,3-b]pyridine] | > 10 | > 10 | > 10

Continued, values first:

IC50 (LATS1) [µM] | IC50 (LATS2) [µM] | IC50 (AKT) [µM] | SMILES
0.0321 | 0.0369 | 1.51 | O=C([C@H]1CCCN1)N1CCC(c2ccc(-c3ccnc4[nH]cc(F)c34)cc2Cl)CC1 [Compound 165, (R)-4-(3-chloro-4-(1-prolylpiperidin-4-yl)phenyl)-3-fluoro-1H-pyrrolo[2,3-b]pyridine]
0.0107 | 0.0155 | 1.3 | O=C([C@@H]1CCCN1)N1CCC(c2ccc(-c3ccnc4[nH]cc(F)c34)cc2Cl)CC1 [Compound 166, (S)-4-(3-chloro-4-(1-prolylpiperidin-4-yl)phenyl)-3-fluoro-1H-pyrrolo[2,3-b]pyridine]
0.018 | 0.031 | 1.52 | CN1CCC(c2ccc(-c3ccnc4[nH]cc(F)c34)cc2Cl)CC1 [Compound 167, 4-(3-chloro-4-(1-methylpiperidin-4-yl)phenyl)-3-fluoro-1H-pyrrolo[2,3-b]pyridine]
> 10 | > 10 | > 10 | CC(C)(C)OC(=O)N1CCC(c2ccc(-c3ccnc4[nH]cc(F)c34)cc2Cl)CC1 [Compound 170, tert-butyl 4-(2-chloro-4-(3-fluoro-1H-pyrrolo[2,3-b]pyridin-4-yl)phenyl)piperidine-1-carboxylate]
0.069 | 0.1 | 5.4 | CC(=O)N1CCC(c2ccc(-c3ccnc4[nH]cc(F)c34)cc2Cl)CC1 [Compound 171, 1-(4-(2-chloro-4-(3-fluoro-1H-pyrrolo[2,3-b]pyridin-4-yl)phenyl)piperidin-1-yl)ethan-1-one]
4.93 | 2.41 | 9 | N#Cc1cc(C2CCNCC2)ccc1-c1ccnc2[nH]ccc12 [Compound 174, 5-(piperidin-4-yl)-2-(1H-pyrrolo[2,3-b]pyridin-4-yl)benzonitrile]
0.056 | 0.142 | 7 | c1cc(-c2ccc(C3CCNCC3)cn2)c2cc[nH]c2n1 [Compound 175, 4-(5-(piperidin-4-yl)pyridin-2-yl)-1H-pyrrolo[2,3-b]pyridine]
1.1 | 2.14 | > 10 | Cc1cc(C2CCNCC2)ccc1-c1ccnc2[nH]ccc12 [Compound 176, 4-(2-methyl-4-(piperidin-4-yl)phenyl)-1H-pyrrolo[2,3-b]pyridine]
0.063 | 0.071 | 0.64 | c1cc(-c2ccc(C3CCNCC3)nc2)c2cc[nH]c2n1 [Compound 178, 4-(6-(piperidin-4-yl)pyridin-3-yl)-1H-pyrrolo[2,3-b]pyridine]
1.08 | 1.29 | 5.66 | COc1cc(C2CCNCC2)ccc1-c1ccnc2[nH]ccc12 [Compound 179, 4-(2-methoxy-4-(piperidin-4-yl)phenyl)-1H-pyrrolo[2,3-b]pyridine]
